Test results: patent US9056091B1, “Composition for regulation of liver X receptor” (National Taiwan University, priority 2014, dated 2015)

Experiments:
hLXRα = biological target: T1, hLXRα (Homo sapiens, UniProt Q13133); assay: LXRα transactivation activity, GAL4-hLXRα LBD / (UAS)4-alkaline phosphatase reporter, transient transfection in CHO-K1 cells; type: cell-based; parameters: key to Enhancing effect (LXRα): “—” indicates no significant effect; conditions: for LXRα transactivation activity, % of T0901317: co-treated with LXR agonist T0901317 (0.5 μM); for LXRα transactivation activity, % of T0901317 / LXRα transactivation activity: 48 hours; for Antagonistic effect (LXRα), ↓ percentage: against LXR agonist (T0901317); for LXRα transactivation activity: sample alone at 1, 5, and 10 μM, p>0.05 vs vehicle; for Enhancing effect (LXRα): sample alone, enhancing percentage relative to positive control
T1 construct: expressed in transfected cells; host or cells: CHO-K1 (Chinese hamster ovary), transient transfection with pBKCMV GAL4-hLXRα
T1 sequence (Q13133 209-447 limits assumed): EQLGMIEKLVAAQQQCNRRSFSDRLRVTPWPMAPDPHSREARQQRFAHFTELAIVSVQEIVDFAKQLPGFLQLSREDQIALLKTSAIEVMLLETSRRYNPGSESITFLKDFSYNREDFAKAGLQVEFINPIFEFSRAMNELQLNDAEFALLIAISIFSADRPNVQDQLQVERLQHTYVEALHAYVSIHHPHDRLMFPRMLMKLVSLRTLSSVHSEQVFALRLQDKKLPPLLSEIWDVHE
From the text: (§1) For the evaluation of LXR transactivation activity, the embodiments of the present invention utilize transient transfection and the vectors used are: (1) pBKCMV GAL4-hLXRα and pBKCMV GAL4-hLXRβ; (2) pBKCMV (UAS)4-alkaline phosphatase, wherein pBKCMV GAL4-hLXRα and pBKCMV GAL4-hLXRβ are pBKCMV vectors having chimeric receptor of GAL4-hLXRα ligand binding doman (LBD) and GAL4-hLXRβ LBD, while pBKCMV (UAS)4-alkaline phosphatase is the pBKCMV vector having the reporter gene of (UAS)4 alkaline phosphatase (ALP). UAS indicates upstream activation sequence. All vectors were co-transfected into Chinese hamster ovary cell (CHO-K1, from Bioresource Collection and Research Center of Food Industry Research and Development Institute, BCRC: 6006).
(§2) Transient transfection of the embodiments of the present invention was performed using Lipofectamin 2000 (Invitrogen). Firstly, after CHO-K1 cells were fully grown, cells were dis-attached by trpsin-EDTA solution and were eluted using 10% CSF-Ham's F-12, wherein CSF represents the FBS pretreated by charcoal (Dextran coated, Sigma, C6231). The cell suspension was diluted to 2.5×10^5 cells/mL, planted onto 96-well plate (100 μL/well), and incubated for 20 to 24 hours at 37° C. with 5% CO2.
(§3) Detailed steps for transfection are as follow: Lipofectamine 2000 was diluted in PS tubes by serum-free OPTI-MEM®I (GIBCO, 31985) for 5 minutes at room temperature; the vector DNA was diluted by a small amount of serum-free OPTI-MEM®I; the vectors in Table 2 were mixed with Lipofectamine 2000 with specific ratio (GAL4-hLXRα:(UAS)4-ALP=4:1; GAL4-hLXRβ:(UAS)4-ALP=4:1) and reacted for 20 minutes at room temperature. During the reaction, the cells were washed by serum-free Ham's F-12 medium (100 μL/well) twice to allow the formation of DNA-liposome complex; the vectors were then added to the above washed cells for transfection to take place at 37° C. and 5% CO2. Solution for transfection was removed after the transient transfection was completed.
Cells after transient transfection in Example 1 and removing the transfection solution were added to fucoxanthin and fucoxanthinol diluted with 10% TCM-Ham's F-12, LXR agonist T0901317, or none, to serve as experimental group, positive control, or vehicle, respectively. The ALP activities of all groups were analysis after incubation for 48 hours at 37° C. with 5% CO2.
(§4) The ALP activity analysis was performed by reacting the culture medium (20 μL/well) and reactant (100 mM pNPP:H2O:2X SEAP assay buffer=1:9:10, 200 μL/well) in a new 96-well plate for 15 minutes at 37° C. The absorbance at 405 nm was measured using microspectrometer.

hLXRβ = biological target: T2, hLXRβ (Homo sapiens, UniProt P55055); assay: LXRβ transactivation activity, GAL4-hLXRβ LBD / (UAS)4-alkaline phosphatase reporter, transient transfection in CHO-K1 cells; type: cell-based; conditions: for LXRβ transactivation activity, % of GW3965: co-treated with LXR agonist GW3965 (0.5 μM); for LXRβ transactivation activity, % of GW3965 / LXRβ transactivation activity, % of the positive control GW3965: 48 hours; for Enhancing effect (LXRβ), ↑ percentage: sample alone, relative to positive control; for Antagonistic effect (LXRβ), ↓ percentage: against LXR agonist (GW3965)
T2 construct: expressed in transfected cells; host or cells: CHO-K1 (Chinese hamster ovary), transient transfection with pBKCMV GAL4-hLXRβ
T2 sequence (P55055 222-460 limits assumed): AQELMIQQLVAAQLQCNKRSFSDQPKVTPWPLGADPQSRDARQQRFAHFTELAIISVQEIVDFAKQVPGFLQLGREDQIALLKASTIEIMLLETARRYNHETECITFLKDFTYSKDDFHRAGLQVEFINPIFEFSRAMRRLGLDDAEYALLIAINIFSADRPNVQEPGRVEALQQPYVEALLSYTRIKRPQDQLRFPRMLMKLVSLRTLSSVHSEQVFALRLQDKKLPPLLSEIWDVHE
From the text: as §1, §2, §3, §4
Cells after the abovementioned transient transfection and removing the transfection solution were added to fucoxanthin and fucoxanthinol diluted with 10% TCM-Ham's F-12, LXR agonist GW3965 (3-[3-[[[2-Chloro-3-trifluoromethyl)-phenyl]methyl](2,2-diphenyl-ethyl)amino]-propoxy]benzeneacetic acid), or none, to serve as experimental group, positive control, or vehicle, respectively. The ALP activities of all groups were analysis after incubation for 48 hours at 37° C. with 5% CO2. Same method for ALP analysis applied as describe in Example 2.

| LXRα transactivation activity, % of T0901317 (hLXRα; 5 μM) | Antagonistic effect (LXRα), ↓ percentage (hLXRα; 10 μM) | LXRα transactivation activity, % of T0901317 (hLXRα; 10 μM) | Enhancing effect (LXRα) (hLXRα) | LXRβ transactivation activity, % of GW3965 (hLXRβ; 1 μM) | Enhancing effect (LXRβ), ↑ percentage (hLXRβ; 1 μM) | LXRβ transactivation activity, % of GW3965 (hLXRβ; 5 μM) | Antagonistic effect (LXRβ), ↓ percentage (hLXRβ; 10 μM) | LXRβ transactivation activity, % of GW3965 (hLXRβ; 10 μM) | LXRβ transactivation activity, % of the positive control GW3965 (hLXRβ; sample alone at 1 μM) | LXRβ transactivation activity, % of the positive control GW3965 (hLXRβ; sample alone at 5 μM) | Enhancing effect (LXRβ), ↑ percentage (hLXRβ; 10 μM) | LXRβ transactivation activity, % of the positive control GW3965 (hLXRβ; sample alone at 10 μM) | Compound | LXRα transactivation activity (hLXRα) |
| --- | --- | --- | --- | --- | --- | --- | --- | --- | --- | --- | --- | --- | --- | --- |
| 48% | ↓80% | 20% | — | 79% | ↑3% | 62% | ↓64% | 36% | approximately 3% | approximately 2% |  |  | C\C(C=C=C1C(C)(C)C[C@H](O)C[C@@]1(C)O)=C/C=C/C(C)=C/C=C/C=C(C)/C=C/C=C(\C)C(=O)C[C@@]12O[C@]1(C)C[C@@H](O)CC2(C)C [fucoxanthinol] | no significant LXRα transactivation activities |
| 76% | ↓59% | 41% | — |  |  | 69% | ↓49% | 51% |  |  | ↑2% | approximately 2% | fucoxanthin | no significant LXRα transactivation activities |
